# Experimental data: US5723458A, “Hypolipidaemic compounds” (Glaxo Wellcome Inc., priority 1993, dated 1998)
# System: rat distal ileal brush border membrane vesicles (active, sodium-dependent 3H taurocholate uptake)
# Assay: In vitro inhibition of bile acid uptake
# Type: biochemical
# Conditions: 30 seconds at 24° C., versus control active uptake
# Protocol: In vitro inhibition of bile acid uptake
# Freshly prepared rat distal ileal brush border membrane vesicles (about […] vesicle protein) were incubated for 30 seconds at 24° C. in an incubation mixture comprising […] ^3 H taurocholate, 100 mM NaCl (or KCl) and 80 mM mannitol in 20 mM Hepes Tris pH 7.4. Each test compound was dissolved in ethanol (or water) and then diluted with incubation mixture to an ethanol concentration of not more than 1% v/v. The incubation was terminated by rapid dilution and filtration and the filter washed with an ice-cold isotonic sodium-free buffer.
# The uptake of ^3 H taurocholate was measured by the radioactivity remaining on the filter and converted to pmoles/mg vesicle protein. The active, ie sodium-dependent, uptake was obtained by subtracting the passive uptake measured in 100 mM KCl from the total uptake measured in 100 mM NaCl. The active uptake for each test compound was compared with a control active uptake and the results expressed as % inhibition of bile acid uptake.
# Data is given below for % inhibition of bile acid uptake at various concentrations of compounds of the invention.
SMILES,% inhibition of bile acid uptake (3 μM test compound) [%],% inhibition of bile acid uptake (10 μM test compound) [%],% inhibition of bile acid uptake (0.3 μM test compound) [%],% inhibition of bile acid uptake (1 μM test compound) [%]
"CC[C@@H](O)C[C@@]1(CC)CS(=O)(=O)c2ccccc2[C@H](c2ccccc2)N1 (racemic) [Example 1, (+-)-trans-3-ethyl-2,3,4,5-tetrahydro-3-((2R)-2hydroxybutyl)-5-phenyl-1,4-benzothiazepine 1,1-dioxide]",36,69,–,–
CC[C@@H](O)C[C@@]1(CC)CS(=O)(=O)c2cc(OC)ccc2[C@H](c2ccccc2)N1 (racemic) [Example 2],60,83,22,44
"CC[C@]1(C[C@H](O)CC(F)(F)F)CS(=O)(=O)c2ccccc2[C@H](c2ccccc2)N1 (racemic) [Example 11, (+-)-trans-1-(3-ethyl-2,3,4,5-tetrahydro-5-phenyl-1,4-benzothiazepin-3-yl)-4,4,4-trifluoro-(2S)-2-butanol-S,S-dioxide]",63,85,13,31
"CC[C@]1(C[C@H](O)CC(F)(F)F)CS(=O)(=O)c2ccc(OC)cc2[C@H](c2ccccc2)N1 (racemic) [Example 12, (+-)-trans-1-(3-ethyl-2,3,4,5-tetrahydro-7-methoxy-5-phenyl-1,4-benzothiazepin-3-yl)-4,4,4-trifluoro-(2S)-2-butanol-S,S-dioxide]",86,95,47,72
"CCC1NC(c2ccc(O)cc2)c2ccccc2S(=O)(=O)C1C[C@@H](O)CC (mixture of isomers) [Example 24, (+-)-Trans-3-Ethyl-2,3,4,5-tetrahydro-2-(2(S)-2-hydroxybutyl)-5-(4-hydroxyphenyl)-1,4-benzothiazepine 1,1-dioxide]",–,23,–,–
